Data as given in patent publication US20240398737A1, “FUNCTIONALIZED LONG-CHAIN HYDROCARBON MONO- AND DI-CARBOXYLIC ACIDS AND DERIVATIVES THEREOF, AND THEIR USE FOR THE PREVENTION OR TREATMENT OF DISEASE” (Espervita Therapeutics, Inc., priority 2021, published 2024).

What was measured:
[1] = biological target: AURORA C (Homo sapiens (Human), UniProt Q9UQB9); assay: Wild type kinase screen: AURORA C; format: biochemical; details: compound at 10 μM, 10 μM ATP, Data 1 and Data 2 duplicates
[2] = Single and repeat dose plasma and tissue pharmacokinetics in male C57BL/6 mice; format: in vivo, mouse; details: for Bioavailability in brain compared to liver (fold lower): 20 mg/kg PO, male C57BL/6 mice; for Cmax / Tmax / AUC(0-t): male, C57BL/6, mouse, po
Description: Materials and methods. The study involved two arms: a single dose pharmacokinetic study and a 4-day repeated-dose pharmacokinetic study. For each arm, 56 inbred male C57BL/6 mice, aged at 6-7 week, were included. All animals were purchased from Charles River Lab (CRL, MA). Upon their arrival, they were kept in special-pathogen-free environment all the time. Briefly, they were housed in group on corncob bedding (ScottPharma, MA) in Innovive® caging system (Innovive, CA) on a 12-hour light-dark cycle (0700-1900) at 68-74° F. and 30-70% humidity. They were allowed continually to access water and regular rodent Purina 5001 diet (ScottPharma, MA) ad libitum and to acclimate in the facility for 5 days. Animal handling and procedures were conducted under the protocols and/or guidelines approved by the Institutional Animal Care and Use Committee (IACUC) of […] Biosciences, Inc. […] Also, 2× drug vehicle (3% CMC+0.4% Tween-20) was prepared and stored at 4° C. for a week. On the day of injection, 1 ml frozen 2× aqueous stock solution (20 mg/ml drug solution) aliquot is thawed and mix with another 1 ml 2× drug vehicle (3% Carboxymethyl cellulose+0.4% Tween 20) to prepare 10 mg/ml drug solution. A 25 g mouse would receive 250 μl of 10 mg/ml solution for a dose of 100 mg/kg. Lower concentrations can be achieved by further diluting the 10 mg/ml in 1× vehicle solution with 1× vehicle prepared with milliQ water. On each dosing day, both compound stocks and 2× vehicle were warmed to room temperature and was mixed at 1:1 ratio, given to a concentration of 10 mg/mL. Then 1:5-fold dilutions were obtained with 1× vehicle to 2 mg/mL. Dosing volume at 10 mL/kg (final dosage: 20 mg/kg) in the morning. Route of administration is oral gavage (volume of 10 ml/kg body weight). Study Design. In each group 4 male 6-7-week-old C57BL/6 mice were used. Doses were administered once daily via oral gavage for either a day (single dose arm, QDx1) or 4 consecutive days (repeated dose arm, QDx4) (FIG. 24). Blood, half of brain hemisphere, and one lobe of liver samples were collected from all animals of Day 1 (QDx1 arm) at pre-dose and 0.25, 2, 4, 8, 24 and 36 hours post dose, or Day 4 (QDx4 arm) at pre-dose and 0.25, 2, 4, 8, 24 and 48 hours post dose. Blood samples were collected by cardiac puncture. The blood samples were maintained in wet ice first and centrifuged to obtain plasma (2000×g, 4° C., 5 min). All three samples from each mouse were analyzed for either Compound I-1 or Compound I-32 contents by Integrated Analytical Solutions (Berkeley, CA) and the results were used for the generation of the pharmacokinetic graphs. Sample collection, storage, bioanalysis and statistical analysis. All plasma and tissue samples were analyzed by discovery grade bioanalytical method developed for estimation of each test compound in plasma and tissue samples using LC-MS/MS systems. Plasma samples were prepared as follows. Three volumes of acetonitrile containing internal standard was added to one volume of plasma to precipitate proteins. Samples were centrifuged (3000×g for 10 min) and supernatant removed for analysis by LC-MS/MS. Calibration standards and quality controls were made by preparation of a 1 mg/mL stock solution in MeOH and subsequently a series of working solutions in MeOH:water (1:1, v/v) which were spiked into blank plasma to yield a series of calibration standard samples in the range of 1.0 ng/mL to 10 μg/mL. All incurred PK/PD plasma samples were treated identically to the calibration standards and quality control samples. LC-MS/MS analysis was performed utilizing multiple reaction monitoring for detection of characteristic ions for each drug candidate, additional related analytes and internal standard. Tissue samples were prepared as follows. Three volumes of PBS buffer (pH 7.4) were added to one volume of each tissue sample which was then homogenized to obtain each tissue homogenate sample. […]

[3] = test system: hepatic de novo lipogenesis; assay: Hepatic de novo lipogenesis (14C-glucose) in a murine model of NASH; format: in vivo, mouse; details: 100 mg/kg as printed in the text (Table 6 prints 60 mg/kg)
[4] = biological target: DDR2 (Homo sapiens (Human), UniProt Q16832); assay: Wild type kinase screen: DDR2; format: biochemical; details: compound at 10 μM, 10 μM ATP, Data 1 and Data 2 duplicates
[5] = biological target: TNIK (Homo sapiens (Human), UniProt Q9UKE5); assay: Wild type kinase screen: TNIK; format: biochemical; details: compound at 10 μM, 10 μM ATP, Data 1 and Data 2 duplicates
[6] = biological target: FLT1/VEGFR1 (Homo sapiens (Human), UniProt P17948); assay: Wild type kinase screen: FLT1/VEGFR1; format: biochemical; details: compound at 10 μM, 10 μM ATP, Data 1 and Data 2 duplicates
[7] = brain, 20 mg/kg, mouse brain, QD × 1, value in parentheses marked * (reanalysis per footnote of Tables 8-9)
[8] = brain, 20 mg/kg, mouse brain, QD × 4, value in parentheses marked * (reanalysis per footnote of Tables 8-9)
[9] = brain, 20 mg/kg/day, mouse brain, 20 mg/kg/day PO, 4 consecutive days (QD × 4)
[10] = brain, 20 mg/kg/day, mouse brain, 20 mg/kg/day PO, single dose (QD × 1)
[11] = liver, 20 mg/kg, mouse liver, QD × 1, value in parentheses: timepoint 0.25 h samples after reanalysis
[12] = liver, 20 mg/kg, mouse liver, QD × 4, value in parentheses: timepoint 0.25 h samples after reanalysis
[13] = liver, 20 mg/kg/day, mouse liver, 20 mg/kg/day PO, 4 consecutive days (QD × 4)
[14] = liver, 20 mg/kg/day, mouse liver, 20 mg/kg/day PO, single dose (QD × 1)
[15] = plasma, 20 mg/kg, mouse plasma, QD × 1, value in parentheses: timepoint 0.25 h samples after reanalysis
[16] = plasma, 20 mg/kg, mouse plasma, QD × 4, value in parentheses: timepoint 0.25 h samples after reanalysis
[17] = plasma, 20 mg/kg/day, mouse plasma, 20 mg/kg/day PO, 4 consecutive days (QD × 4)
[18] = plasma, 20 mg/kg/day, mouse plasma, 20 mg/kg/day PO, single dose (QD × 1)
[19] = mouse brain, 20 mg/kg/day PO, 4 consecutive days (QD × 4)
[20] = mouse brain, 20 mg/kg/day PO, single dose (QD × 1)
[21] = mouse liver, 20 mg/kg/day PO, 4 consecutive days (QD × 4)
[22] = mouse liver, 20 mg/kg/day PO, single dose (QD × 1)

DDR2, sequence (Q16832 22-855, species assumed): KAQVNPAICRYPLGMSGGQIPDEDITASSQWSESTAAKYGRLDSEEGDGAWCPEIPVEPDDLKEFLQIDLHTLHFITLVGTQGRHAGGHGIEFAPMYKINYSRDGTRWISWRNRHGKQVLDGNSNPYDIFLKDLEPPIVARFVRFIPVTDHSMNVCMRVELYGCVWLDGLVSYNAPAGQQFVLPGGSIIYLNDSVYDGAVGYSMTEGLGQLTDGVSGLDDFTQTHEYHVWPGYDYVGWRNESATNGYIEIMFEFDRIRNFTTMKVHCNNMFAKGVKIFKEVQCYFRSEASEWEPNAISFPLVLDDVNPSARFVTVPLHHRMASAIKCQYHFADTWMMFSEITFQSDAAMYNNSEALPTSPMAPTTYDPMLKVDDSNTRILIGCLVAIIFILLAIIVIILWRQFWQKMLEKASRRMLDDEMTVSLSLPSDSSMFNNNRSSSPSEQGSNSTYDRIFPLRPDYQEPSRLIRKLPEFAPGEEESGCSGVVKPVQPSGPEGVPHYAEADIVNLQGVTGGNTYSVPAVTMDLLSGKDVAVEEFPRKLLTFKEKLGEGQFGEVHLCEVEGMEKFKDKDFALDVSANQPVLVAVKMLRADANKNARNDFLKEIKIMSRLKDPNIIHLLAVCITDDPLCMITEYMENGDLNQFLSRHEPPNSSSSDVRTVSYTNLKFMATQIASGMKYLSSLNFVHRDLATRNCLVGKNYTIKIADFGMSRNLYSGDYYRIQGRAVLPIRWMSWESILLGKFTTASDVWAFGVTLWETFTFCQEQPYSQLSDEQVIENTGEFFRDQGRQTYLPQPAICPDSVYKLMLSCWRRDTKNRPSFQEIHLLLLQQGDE
AURORA C, sequence (Q9UQB9 whole entry): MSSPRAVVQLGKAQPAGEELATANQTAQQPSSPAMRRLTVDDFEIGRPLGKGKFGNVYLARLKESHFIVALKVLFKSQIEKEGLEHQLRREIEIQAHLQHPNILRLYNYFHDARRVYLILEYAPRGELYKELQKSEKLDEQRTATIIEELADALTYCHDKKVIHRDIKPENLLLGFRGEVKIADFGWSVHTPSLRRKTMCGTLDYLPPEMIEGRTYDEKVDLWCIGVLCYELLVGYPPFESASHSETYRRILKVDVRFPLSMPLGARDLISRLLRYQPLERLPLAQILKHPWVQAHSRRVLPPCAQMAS
FLT1/VEGFR1, sequence (P17948 27-1338): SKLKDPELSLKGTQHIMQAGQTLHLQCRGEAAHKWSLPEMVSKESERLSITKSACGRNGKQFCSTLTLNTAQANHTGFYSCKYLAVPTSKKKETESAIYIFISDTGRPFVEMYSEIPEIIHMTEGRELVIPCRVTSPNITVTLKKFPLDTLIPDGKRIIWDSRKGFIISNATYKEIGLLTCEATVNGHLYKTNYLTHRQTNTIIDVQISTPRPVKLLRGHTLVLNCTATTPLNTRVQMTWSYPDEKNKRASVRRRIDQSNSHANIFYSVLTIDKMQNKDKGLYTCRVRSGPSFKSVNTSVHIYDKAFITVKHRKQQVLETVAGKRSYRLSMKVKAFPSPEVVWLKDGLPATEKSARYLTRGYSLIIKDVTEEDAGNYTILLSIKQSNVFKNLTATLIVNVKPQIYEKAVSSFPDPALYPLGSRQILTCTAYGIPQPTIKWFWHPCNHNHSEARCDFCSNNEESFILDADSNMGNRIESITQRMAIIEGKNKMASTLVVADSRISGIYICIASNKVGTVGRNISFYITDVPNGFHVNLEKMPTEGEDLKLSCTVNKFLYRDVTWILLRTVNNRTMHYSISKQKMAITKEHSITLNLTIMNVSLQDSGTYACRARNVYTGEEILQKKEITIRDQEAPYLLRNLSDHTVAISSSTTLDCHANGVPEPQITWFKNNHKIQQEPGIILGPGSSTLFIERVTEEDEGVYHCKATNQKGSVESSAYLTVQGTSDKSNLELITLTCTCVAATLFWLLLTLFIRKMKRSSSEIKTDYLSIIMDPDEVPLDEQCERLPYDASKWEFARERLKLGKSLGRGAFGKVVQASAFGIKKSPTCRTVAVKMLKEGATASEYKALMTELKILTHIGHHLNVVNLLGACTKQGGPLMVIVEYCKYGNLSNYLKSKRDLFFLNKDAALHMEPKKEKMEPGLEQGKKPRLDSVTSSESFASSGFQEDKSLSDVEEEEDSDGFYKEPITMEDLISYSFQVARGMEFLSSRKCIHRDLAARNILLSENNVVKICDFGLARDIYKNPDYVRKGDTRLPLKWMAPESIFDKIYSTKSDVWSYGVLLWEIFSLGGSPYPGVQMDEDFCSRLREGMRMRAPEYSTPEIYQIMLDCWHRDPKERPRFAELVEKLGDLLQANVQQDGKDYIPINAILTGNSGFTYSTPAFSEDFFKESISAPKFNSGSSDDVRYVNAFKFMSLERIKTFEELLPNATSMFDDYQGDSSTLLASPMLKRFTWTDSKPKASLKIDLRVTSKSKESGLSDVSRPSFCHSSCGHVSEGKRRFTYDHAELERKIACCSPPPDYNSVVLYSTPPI
TNIK, sequence (Q9UKE5 whole entry, species assumed): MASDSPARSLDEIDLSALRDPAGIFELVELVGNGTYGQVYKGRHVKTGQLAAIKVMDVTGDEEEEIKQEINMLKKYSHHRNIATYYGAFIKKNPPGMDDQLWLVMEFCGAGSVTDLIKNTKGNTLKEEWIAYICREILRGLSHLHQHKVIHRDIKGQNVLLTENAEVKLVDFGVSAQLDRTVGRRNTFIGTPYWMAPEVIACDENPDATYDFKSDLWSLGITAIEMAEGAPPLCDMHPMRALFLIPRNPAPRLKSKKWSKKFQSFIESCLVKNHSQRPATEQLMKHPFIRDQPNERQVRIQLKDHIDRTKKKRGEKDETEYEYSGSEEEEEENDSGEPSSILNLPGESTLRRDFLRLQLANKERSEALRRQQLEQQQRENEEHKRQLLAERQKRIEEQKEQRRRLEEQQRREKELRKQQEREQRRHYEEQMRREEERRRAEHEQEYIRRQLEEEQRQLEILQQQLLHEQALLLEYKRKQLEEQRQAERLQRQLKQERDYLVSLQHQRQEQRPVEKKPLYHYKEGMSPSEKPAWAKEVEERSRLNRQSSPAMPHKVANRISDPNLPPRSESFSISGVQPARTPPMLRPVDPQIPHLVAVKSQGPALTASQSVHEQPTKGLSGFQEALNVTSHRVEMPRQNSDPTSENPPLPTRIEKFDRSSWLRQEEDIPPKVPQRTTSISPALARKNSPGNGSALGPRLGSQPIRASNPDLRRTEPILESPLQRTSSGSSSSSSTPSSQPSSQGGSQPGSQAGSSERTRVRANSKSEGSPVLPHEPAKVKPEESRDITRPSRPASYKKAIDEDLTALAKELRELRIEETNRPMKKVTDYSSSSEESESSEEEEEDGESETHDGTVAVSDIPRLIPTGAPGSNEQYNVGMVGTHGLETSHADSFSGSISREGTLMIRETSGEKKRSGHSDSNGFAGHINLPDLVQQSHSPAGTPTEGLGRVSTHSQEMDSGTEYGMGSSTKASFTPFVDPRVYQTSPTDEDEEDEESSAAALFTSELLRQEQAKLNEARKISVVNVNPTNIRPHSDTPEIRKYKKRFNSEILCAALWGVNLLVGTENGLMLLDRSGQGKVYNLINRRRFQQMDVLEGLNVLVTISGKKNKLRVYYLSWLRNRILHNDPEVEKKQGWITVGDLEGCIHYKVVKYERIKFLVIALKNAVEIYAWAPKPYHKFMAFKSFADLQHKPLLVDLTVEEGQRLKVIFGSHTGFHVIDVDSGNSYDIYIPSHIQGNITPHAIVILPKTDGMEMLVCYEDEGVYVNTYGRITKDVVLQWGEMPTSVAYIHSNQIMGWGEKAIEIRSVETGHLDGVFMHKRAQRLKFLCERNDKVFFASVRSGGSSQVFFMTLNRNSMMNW

## CC(C)(CCCCc1ccc(CCCCC(C)(C)C(=O)O)cc1)C(=O)O [Compound I-1, 6-[4-(5-carboxy-5-methylhexyl)-phenyl]-2,2-dimethylhexanoic acid]
[1]
  % Enzyme Activity (relative to DMSO controls): 93.1%
[2]
  Bioavailability in brain compared to liver (fold lower): 300-400 fold
[2]; [7]
  Cmax: 1020 ng/g
  Tmax: 15 min
[2]; [8]
  Cmax: 1390 ng/g
  Tmax: 15 min
[2]; [9]
  Cmax: 168 ng/g
  Tmax: 240 min
[2]; [10]
  Cmax: 492 ng/g
  Tmax: 120 min
[2]; [11]
  Cmax: 21500 ng/g
  Tmax: 15 min
[2]; [12]
  Cmax: 46600 ng/g
  Tmax: 15 min
[2]; [13]
  Cmax: 30900 ng/g
  Tmax: 15 min
[2]; [14]
  Cmax: 27000 ng/g
  Tmax: 15 min
[2]; [15]
  AUC(0-t): 1670 µg·h/mL
  Cmax: 90 µg/mL
  Tmax: 15 min
[2]; [16]
  AUC(0-t): 1090 µg·h/mL
  Cmax: 76.1 µg/mL
  Tmax: 15 min
[2]; [17]
  AUC(0-t): 1170 µg·h/mL
  Cmax: 102 µg/mL
  Tmax: 15 min
[2]; [18]
  AUC(0-t): 1380 µg·h/mL
  Cmax: 102 µg/mL
  Tmax: 15 min
[2]; [19]
  AUC0-t (h*ng/g): 1,220 h*ng/g
[2]; [20]
  AUC0-t (h*ng/g): 1,183 h*ng/g
[2]; mouse brain, QD × 1, value in parentheses marked * (reanalysis per footnote of Tables 8-9)
  AUC0-t (h*ng/g): (2,091)* h*ng/g
[2]; mouse brain, QD × 4, value in parentheses marked * (reanalysis per footnote of Tables 8-9)
  AUC0-t (h*ng/g): (3,995)* h*ng/g
[2]; [21]
  AUC0-t (h*ng/g): 687,414 h*ng/g
[2]; [22]
  AUC0-t (h*ng/g): 425,184 h*ng/g
[2]; mouse liver, QD × 1, value in parentheses: timepoint 0.25 h samples after reanalysis
  AUC0-t (h*ng/g): (469,726)* h*ng/g
[2]; mouse liver, QD × 4, value in parentheses: timepoint 0.25 h samples after reanalysis
  AUC0-t (h*ng/g): (718,455)* h*ng/g
[3]
  Inhibition of liver lipogenesis: 69%
[4]
  % Enzyme Activity (relative to DMSO controls): 69.84%
[5]
  % Enzyme Activity (relative to DMSO controls): 101.58%
[6]
  % Enzyme Activity (relative to DMSO controls): 87.88%

## CC(C)(CCCCc1cccc(CCCCC(C)(C)C(=O)O)c1)C(=O)O [Compound I-32, 6-[3-(5-carboxy-5-methylhexyl)-phenyl]-2,2-dimethylhexanoic acid]
[1]
  % Enzyme Activity (relative to DMSO controls): 97.44%
[2]
  Bioavailability in brain compared to liver (fold lower): 300-400 fold
[2]; [9]
  Cmax: 604 ng/g
  Tmax: 240 min
[2]; [10]
  Cmax: 362 ng/g
  Tmax: 120 min
[2]; [13]
  Cmax: 43000 ng/g
  Tmax: 240 min
[2]; [14]
  Cmax: 25100 ng/g
  Tmax: 120 min
[2]; [17]
  AUC(0-t): 758 µg·h/mL
  Cmax: 76.5 µg/mL
  Tmax: 240 min
[2]; [18]
  AUC(0-t): 240 µg·h/mL
  Cmax: 50.2 µg/mL
  Tmax: 120 min
[2]; [19]
  AUC0-t (h*ng/g): 6,304 h*ng/g
[2]; [20]
  AUC0-t (h*ng/g): 1,527 h*ng/g
[2]; [21]
  AUC0-t (h*ng/g): 100,6991 h*ng/g
[2]; [22]
  AUC0-t (h*ng/g): 405,934 h*ng/g
[3]
  Inhibition of liver lipogenesis: ~50%
[4]
  % Enzyme Activity (relative to DMSO controls): 85.83%
[5]
  % Enzyme Activity (relative to DMSO controls): 99.68%
[6]
  % Enzyme Activity (relative to DMSO controls): 91.15%
